# Laboratory results as given in US9586056B2, “Combination therapy for treating cancer and method for treating cancer using a combination therapy” (Haniva LLC, priority 2014, dated 2017).
# Assays:
# Type in all cases: cell-based
# [1] = test system: HIF1α; test: HIF1α expression under hypoxia (FIG. 14)
# Excerpt: HIF1α is a transcription factor that enhances transcription of many metastasis related genes. The expression of HIF1α usually increases under hypoxic conditions.
# [2] = test system: 1205Lu melanoma cells; test: IC50 of tirapazamine for melanoma cells; settings: Homo sapiens
# [3] = test system: 1205Lu C×43 (C); test: Number of viable cells after treatment (FIG. 11); settings: normoxia; tirapazamine at 28.5 μM
# Procedure: (§1) The cell lines shown in FIG. 11 include: 1205Lu plasmid (P), 1205Lu […]), 1205Lu-[…] (T). […] The cells were treated with non-thermal plasma (NTP), tirapazamine at 28.5 μM (TPZ), or the combination (NTP/TPZ). […] (T) but not for 1205Lu plasmid (P). […] Under […], all treatments (NTP, TPZ and NTP/TPZ) cause a decrease in cell number from the original number of cells (6×10^6) to approximately (3×10^6) for all melanoma cell lines. Under hypoxia, TPZ causes a decrease in cell number from the original number of cells (6×10^6) to approximately (1.2-0.6×10^5). Under hypoxia, NTP/TPZ causes a decrease from the original number of cells (6×10^6) to approximately (0.1-0.03×10^5). […] In addition, the target area of the NTP torch dramatically increases under these conditions. The ROS generated by NTP and tirapazamine induces the bystander effect and promotes the spreading of cell death signals well beyond the area of the plasma treatment. Upon treatment for 24 hours with NTP+/- tirapazamine at normal conditions (normoxia) or hypoxic conditions (hypoxia), the combination of NTP+/- tirapazamine enhances cell death under hypoxia. Furthermore, the area in which the plasma torch affects the cells increases only in the cells overexpressing the functional gap junctions.
# [4] = test system: 1205Lu plasmid (P); test: Number of viable cells after treatment (FIG. 11); settings: normoxia; tirapazamine at 28.5 μM
# Procedure: as §1
# [5] = test system: 1205Lu-T154A (T); test: Number of viable cells after treatment (FIG. 11); settings: normoxia; tirapazamine at 28.5 μM
# Procedure: as §1
# [6] = test system: 1205Lu cells; test: Photographic assessment of cell death (FIGS. 12 and 13)
# Excerpt: The broken lines shown in FIGS. 12 and 13 demarcate live cells from dead cells. The portions shown with asterisks represent the dead cells.
structure (smiles),measurement,setting,value
"Nc1n[n+]([O-])c2ccccc2[n+]1[O-] [TPZ, 3-Aminobenzo[e][1,2,4]triazine 1,4-dioxide]",expression of HIF1α compared with control,[1]; cell line C,decrease
same,expression of HIF1α compared with control,[1]; cell line P,increase
same,expression of HIF1α compared with control,[1]; cell line T,increase
same,IC50,[2],28.5 µM
same,change in viable cells,[3],decrease in viable cells
same,change in viable cells,[4],decrease in viable cells
same,change in viable cells,[5],decrease in viable cells
same,cell toxicity (FIG. 13),[6]; hypoxia,induces cell toxicity only under hypoxic conditions
same,effect on cells (FIG. 12),[6]; normal oxygen conditions,no effect
